{"source": "patent US20140045695A1", "about": "“Continuous Fiber Layer Comprising an Active Substance on the Basis of Bio-polymers, the Use Thereof, and Method for the Production Thereof” (priority 2008, published 2014)", "key": {"[1]": {"settings": "cited from earlier work"}, "[2]": {"assay": "Crystallinity studies by x-ray diffraction (WAXS in transmission)", "type": "physicochemical", "excerpt": "FIG. 2 crystallinity studies (WAXS in transmission) of the GGE active ingredient in the C16 spider silk protein formulations obtained by electrospinning compared to the pure substances (GGE or C16 powder);\nFIG. 6 crystallinity studies (WAXS in transmission) of the clotrimazole active ingredient in the C16 spider silk protein formulations obtained by electrospinning compared to pure clotrimazole;\nFIG. 9 crystallinity studies (WAXS in transmission) of the metazachlor active ingredient in the C16 spider silk protein formulations obtained by electrospinning compared to pure metazachlor;\nFIG. 12 crystallinity studies (WAXS in transmission) of the Uvinul A+ active ingredient in the C16 spider silk protein formulations obtained by electrospinning compared to Uvinul A+ pure substance;\nFIG. 16 crystallinity studies (WAXS in transmission) of the Uvinul A+ active ingredient in the R16 protein nonwoven (A) and S16 protein nonwoven (B) obtained by electrospinning compared to pure Uvinul A+;"}}, "note": "Like-named read-outs stand apart in the source and are kept apart here."}
{"smiles": "NC(=O)N1c2ccccc2C=Cc2ccccc21", "note": "[Carbamazipine]", "values": [{"measurement": "Solubility in water", "setting": "[1]; RT", "value": 945.1, "unit": "µg/mL"}]}
{"smiles": "Clc1ccccc1C(c1ccccc1)(c1ccccc1)n1ccnc1", "note": "[Clotrimazole]", "values": [{"measurement": "Solubility in water", "setting": "[1]; 25° C.", "value": "<10", "unit": "µg/mL"}]}
{"smiles": "Cc1cccc(C)c1N(Cn1cccn1)C(=O)CCl", "note": "[metazachlor]", "values": [{"measurement": "crystallinity of the active ingredient in x-ray diffraction", "setting": "[2]", "value": "significant crystalline proportions"}]}
